Assay results reported in US9839642B2, “Beta-tetrazolyl-propionic acids as metallo-beta-lactamase inhibitors” (priority 2014, dated 2017).
Read-outs that look alike come from different tables or passages of the source.

What was measured:
IMP-1 = IMP-1 (Serratia marcescens, UniProt P52699); assay: Enzyme activity: determination of IC50, fluorescence assay with CCF2-FA substrate; type: biochemical; conditions: CCF2-FA 1.25 μM, 2 hours at 25° C., read-out: IMP1 IC50
How it was run: (§1)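 Final enzyme levels differed by target: 1 pM NDM-1, 2 pM IMP-1, 30 pM VIM-1. Each was incubated 2 hours at 25° C with test compound and 1.25 μM CCF2-FA, and 460 nm fluorescence (405 nm excitation) was fitted by 4-parameter curve to obtain IC50.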

NDM-1 = NDM-1 (Klebsiella pneumoniae, UniProt C7C422); assay: as above; type: biochemical; conditions: CCF2-FA 1.25 μM, 2 hours at 25° C., read-out: NDM1 IC50
NDM-1, sequence (C7C422 29-270, looked up, species assumed): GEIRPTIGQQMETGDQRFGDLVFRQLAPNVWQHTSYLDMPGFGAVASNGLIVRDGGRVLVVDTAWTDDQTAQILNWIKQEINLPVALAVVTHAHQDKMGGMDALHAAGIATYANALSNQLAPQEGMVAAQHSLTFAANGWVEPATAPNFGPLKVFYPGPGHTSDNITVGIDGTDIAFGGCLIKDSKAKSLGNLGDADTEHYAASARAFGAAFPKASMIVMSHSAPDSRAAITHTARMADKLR
How it was run: as §1

VIM-1 = VIM-1 (Pseudomonas aeruginosa, UniProt A0A0F7KYQ8); assay: as above; type: biochemical; conditions: CCF2-FA 1.25 μM, 2 hours at 25° C., read-out: VIM1 IC50
How it was run: as §1

[1] = system: Serratia marcescens expressing IMP-1 (CL5741); assay: Antibiotic potentiation activity: synergistic concentration (MITC95) with imipenem, growth by OD600; type: cell-based
How it was run: (§2)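 Colonies from overnight agar plates (35 °C) were suspended in saline and diluted 1:100 into 1.1× CAMHB. Inhibitor (final 200 μM to 0.195 μM) was combined with imipenem at 1 or 4 μg/ml, incubated 22–24 h at 35 °C, and absorbance read; MITC95 is the lowest inhibitor concentration giving 95% growth inhibition.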

[2] = system: Klebsiella pneumoniae expressing VIM-1 (IHMA599644); assay: as above; type: cell-based
How it was run: as §2

[3] = system: Escherichia coli expressing NDM-1 (CLB30016); assay: as above; type: cell-based
How it was run: as §2

[4] = S. marcescens CL5741 (IMP-1), 95% inhibition of growth
[5] = K. pneumoniae IHMA599644 (VIM-1), 95% inhibition of growth
[6] = E. coli CLB30016 (NDM-1), 95% inhibition of growth
[7] = 95% inhibition of bacterial growth, strain CL5741
[8] = 95% inhibition of bacterial growth, strain IHMA599644
[9] = 95% inhibition of bacterial growth, strain CLB30016

IMP-1, sequence (P52699 19-246, looked up, species assumed): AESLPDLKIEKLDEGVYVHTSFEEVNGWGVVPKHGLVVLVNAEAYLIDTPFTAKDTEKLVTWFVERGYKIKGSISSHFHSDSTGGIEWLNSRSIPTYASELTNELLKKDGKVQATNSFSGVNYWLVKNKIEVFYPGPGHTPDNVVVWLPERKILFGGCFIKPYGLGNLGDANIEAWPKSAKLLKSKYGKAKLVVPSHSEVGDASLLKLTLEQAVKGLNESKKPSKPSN

SMILES	IC50 (IMP-1; IMP-1 enzyme 2 pM)	IC50 (NDM-1; NDM-1 enzyme 1 pM)	IC50 (VIM-1; VIM-1 enzyme 30 pM)	IMP1 SM5741 MITC95 [1, 4]	VIM1 KP599644 MITC95 [2, 5]	NDM1 EC30016 MITC95 [3, 6]	IC50 (IMP-1; enzyme 2 pM)	IC50 (NDM-1; enzyme 1 pM)	IC50 (VIM-1; enzyme 30 pM)	IMP1 SM5741 MITC95 [1, 7]	VIM1 KP599644 MITC95 [2, 8]	NDM1 EC30016 MITC95 [3, 9]
CCC[C@H](C(=O)O)[C@H](Cc1cccc(N2CCNC(=O)C2)c1)c1nn[nH]n1 [Example 367, (2S)-2-[(1S)-2-[3-(3-oxopiperazin-1-yl)phenyl]-1-(2H-tetrazol-5-yl)ethyl]pentanoic acid]	> 20000 nM	1400 nM	260 nM	>200 µM	>200 µM	>200 µM	–	–	–	–	–	–
CCC[C@H](C(=O)O)[C@H](Cc1ccc(C2CCN(C=N)C2)cc1)c1nnn[nH]1 (stereo partly drawn) [Example 415, (2S)-2-((1S)-2-(4-(1-(iminomethyl)pyrrolidin-3-yl)phenyl)-1-(1H-tetrazol-5-yl)ethyl)pentanoic acid]	390 nM	121 nM	4.32 nM	12.5 µM	18.75 µM	9.375 µM	–	–	–	–	–	–
Cc1cc(C[C@H](c2nnn[nH]2)[C@@H](C(=O)O)C(C)C)ccc1C1CCNC1 (stereo partly drawn) [Example 110, (2S,3S)-2-isopropyl-4-(3-methyl-4-(pyrrolidin-3-yl)phenyl)-3-(1H-tetrazol-5-yl)butanoic acid]	–	–	–	–	–	–	1400 nM	24 nM	4.4 nM	18.8 µM	6.2 µM	4.7 µM
CC(C)C[C@H](C(=O)O)[C@H](Cc1ccc2cc(NCCO)cnc2c1)c1nnn[nH]1 [Example 133, (S)-2-((S)-2-(3-((2-hydroxyethyl)amino)quinolin-7-yl)-1-(1H-tetrazol-5-yl)ethyl)-4-methylpentanoic acid]	–	–	–	–	–	–	79 nM	12 nM	1.6 nM	6.2 µM	75 µM	25 µM
CC(C)C[C@H](C(=O)O)[C@H](Cc1ccc(C2CCNCC2)cn1)c1nnn[nH]1 [Example 101, (S)-4-methyl-2-((S)-2-(5-(piperidin-4-yl)pyridin-2-yl)-1-(1H-tetrazol-5-yl)ethyl)pentanoic acid]	–	–	–	–	–	–	2000 nM	130 nM	13 nM	18.8 µM	18.8 µM	1.6 µM
CCC[C@H](C(=O)O)[C@H](Cc1cccnc1)c1nnn[nH]1 [Example 264, (S)-2-((S)-2-(pyridin-3-yl)-1-(1H-tetrazol-5-yl)ethyl)pentanoic acid]	7100 nM	370 nM	16 nM	100 µM	18.8 µM	2.3 µM	–	–	–	–	–	–
CC(C)C[C@H](C(=O)O)[C@H](Cc1ccc(CN2CCC(N)CC2)c(F)c1)c1nn[nH]n1.O=C(O)C(F)(F)F [Example 444, 1-(4-((2S,3S)-3-carboxy-5-methyl-2-(2H-tetrazol-5-yl)hexyl)-2-fluorobenzyl)piperidin-4-aminium 2,2,2-trifluoroacetate]	216 nM	82.9 nM	76.5 nM	12.5 µM	25 µM	9.375 µM	–	–	–	–	–	–
CCC[C@H](C(=O)O)[C@H](Cc1ccc(C(=O)NCC2CC2)cc1)c1nnn[nH]1 [Example 282, (2S)-2-[(1S)-2-{4-[(cyclopropylmethyl)carbamoyl]phenyl}-1-(1H-tetrazol-5-yl)ethyl]pentanoic acid]	730 nM	98 nM	19 nM	50 µM	50 µM	18.8 µM	–	–	–	–	–	–
CCC[C@H](C(=O)O)[C@H](Cc1ccc(NCCO)nc1)c1nnn[nH]1 [Example 129, (S)-2-((S)-2-(6-((2-hydroxyethyl)amino)pyridin-3-yl)-1-(1H-tetrazol-5-yl)ethyl)pentanoic acid]	–	–	–	–	–	–	830 nM	77 nM	5.6 nM	9.4 µM	9.4 µM	0.39 µM
CCC[C@H](C(=O)O)[C@H](Cc1ccccc1-c1ccncc1)c1nn[nH]n1 [Example 397, (2S)-2-[(1S)-2-(2-pyridin-4-ylphenyl)-1-(2H-tetrazol-5-yl)ethyl]pentanoic acid]	5000 nM	13 nM	16 nM	200 µM	75 µM	6.2 µM	–	–	–	–	–	–
